Earlier results as cited in patent US20130261032A1, “ADDITIVE FOR SUBTERRANEAN TREATMENT” (SCHLUMBERGER TECHNOLOGY CORPORATION, priority 2012, published 2013).
Where two headings read alike, the source gives them in different places.

| SMILES | acute oral toxicity, LD50 (oral) | acute oral toxicity, LD50 (in vivo, po) [mg/kg] |
| --- | --- | --- |
| C[N+](C)(C)CC(=O)[O-] [TMG, trimethyl glycine] | greater than 10,000 mg/kg |  |
| CCO [ethanol] |  | 7060 |
| CC(O)CO (stereo not drawn) [propylene glycol] | 20,000 mg/kg |  |
